Key:
[1] = compound: C[C@@H](c1ccc2nccn2c1)n1nnc2ncc(-c3cnn(C)c3)nc21 [Savolitinib]; conditions: max 1 µM
Procedure, shortened: (§1)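 In 1536-well plates, cancer cell lines in 7.5 μl DMEM/F12 or RPMI with 10% FBS spent 24 hours at 37°C and 5% CO2 and were then dosed for 72 hours with final DMSO typically 0.2%. Viability was read by CellTiter-Glo 2.0 luminescence and scaled between blank-well and DMSO-well means. The single-agent IC50 was fitted from dose responses using a logistic curve in a non-linear mixed effects model, and that logistic curve had two parameters.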

[2] = compound: COc1cccc2c1C(=O)c1c(O)c3c(c(O)c1C2=O)C[C@@](O)(C(=O)CO)C[C@@H]3O[C@H]1C[C@H](N)[C@H](O)[C@H](C)O1 [Doxorubicin]; conditions: max 1 µM
Procedure, shortened: as §1

[3] = compound: Cc1cc2ncnn2cc1Nc1ncc2c(n1)n(C1CCOCC1)c(=O)n2C [AZD7648]; conditions: max 10 µM
Procedure, shortened: as §1

[4] = compound: C[C@@H](Nc1cc(F)cc(F)c1)c1cc(C(=O)N(C)C)cc2c(=O)cc(N3CCOCC3)oc12 [AZD8186]; conditions: max 3 µM
Procedure, shortened: as §1

[5] = compound: O=C(c1cc(Cc2n[nH]c(=O)c3ccccc23)ccc1F)N1CCN(C(=O)C2CC2)CC1 [Olaparib]
Procedure, shortened: as §1

[6] = compound: CC1=C(C(=CC=C1)Cl)NC(=O)C2=CN=C(S2)NC3=CC(=NC(=N3)C)N4CCN(CC4)CCO [Dasatinib]; conditions: max 2 µM
Procedure, shortened: as §1

[7] = compound: C[C@@H]1COCCN1C2=NC(=NC(=C2)C3(CC3)[S@](=N)(=O)C)C4=C5C=CNC5=NC=C4 [AZD6738]; conditions: max 10 µM
Procedure, shortened: as §1

[8] = compound: CC1=CN2[C@@H](C1)C=NC3=CC(=C(C=C3C2=O)OC)OCCCCCOC4=C(C=C5C(=C4)N=C[C@@H]6CC(=CN6C5=O)C)OC [SG3199]; conditions: max 0.001 µM
Procedure, shortened: as §1

[9] = compound: COc1nnc2ccc(N3CCC(c4ccc(OCCN5CCN(C)C(=O)[C@H]5C)cc4)CC3)nn12 [AZD5153]; conditions: max 1 µM
Procedure, shortened: as §1

[10] = compound: CC(C)n1c(=O)n(C)c2cnc3cc(F)c(-c4ccc(OCCCN5CCCCC5)nc4)cc3c21 [AZD1390]; conditions: max 0.3 µM
Procedure, shortened: as §1

[11] = compound: CCc1c2c(nc3ccc(O)cc13)-c1cc3c(c(=O)n1C2)COC(=O)[C@]3(O)CC [SN-38]; conditions: max 0.3 µM
Procedure, shortened: as §1

[12] = compound: COc1cccc(OCCCN)c1-c1cc(Nc2cnc(C#N)cn2)n[nH]1 [Prexasertib]; conditions: max 1 µM
Procedure, shortened: as §1

[13] = compound: CC(=O)Nc1cccc(-n2c(=O)n(C3CC3)c(=O)c3c(Nc4ccc(I)cc4F)n(C)c(=O)c(C)c32)c1 [Trametinib]; conditions: max 1 µM
Procedure, shortened: as §1

[14] = compound: C1CN(CCC1(C(=O)N[C@@H](CCO)C2=CC=C(C=C2)Cl)N)C3=NC=NC4=C3C=CN4 [Capivasertib]
Procedure, shortened: as §1

[15] = compound: CC1(C)CCC(CN2CCN(c3ccc(C(=O)NS(=O)(=O)c4ccc(NCC5CCOCC5)c([N+](=O)[O-])c4)c(Oc4cnc5[nH]ccc5c4)c3)CC2)=C(c2ccc(Cl)cc2)C1 [Venetoclax]; conditions: max 1 µM
Procedure, shortened: as §1

[16] = compound: CCN(CCO)CCCOc1ccc2c(Nc3cc(CC(=O)Nc4cccc(F)c4)[nH]n3)ncnc2c1 [AZD2811]; conditions: max 1 µM
Procedure, shortened: as §1

[17] = compound: CC(=O)c1c(C)c2cnc(Nc3ccc(N4CCNCC4)cn3)nc2n(C2CCCC2)c1=O [Palbociclib]; conditions: max 10 µM
Procedure, shortened: as §1

[18] = compound: Cc1nc(-c2cn3c(n2)-c2ccc(-c4cnn(C(C)(C)C(N)=O)c4)cc2OCC3)n(C(C)C)n1 [Taselisib]; conditions: max 10 µM
Procedure, shortened: as §1

[19] = compound: COc1cc2ncnc(Nc3ccc(F)c(Cl)c3)c2cc1OCCCN1CCOCC1 [Gefitinib]; conditions: max 10 µM
Procedure, shortened: as §1

[20] = compound: C=CCn1c(=O)c2cnc(Nc3ccc(N4CCN(C)CC4)cc3)nc2n1-c1cccc(C(C)(C)O)n1 [AZD1775]; conditions: max 3 µM
Procedure, shortened: as §1

[21] = compound: CS(=O)(=O)CCNCc1ccc(-c2ccc3ncnc(Nc4ccc(OCc5cccc(F)c5)c(Cl)c4)c3c2)o1 [Lapatinib]; conditions: max 10 µM
Procedure, shortened: as §1

[22] = compound: COc1cc(Nc2ncc3c(n2)-c2ccc(Cl)cc2C(c2c(F)cccc2OC)=NC3)ccc1C(=O)O [Alisertib]; conditions: max 10 µM
Procedure, shortened: as §1

[23] = compound: CN(CC[C@H](CSC1=CC=CC=C1)NC2=C(C=C(C=C2)S(=O)(=O)NC(=O)C3=CC=C(C=C3)N4CCC(CC4)[C@H](C5=CC=CC=C5C6=CC=C(C=C6)Cl)O)S(=O)(=O)C(F)(F)F)CCO [AZD4320]; conditions: max 1 µM
Procedure, shortened: as §1

[24] = compound: CN(C)CCCOc1ccc(-c2ccc3ncc4c(c3c2)n(C2CCOCC2)c(=O)n4C)cn1 [AZD0156]; conditions: max 3 µM
Procedure, shortened: as §1

[25] = compound: C[C@@H](Oc1cc(-c2cnn(C3CCNCC3)c2)cnc1N)c1c(Cl)ccc(F)c1Cl [Crizotinib]; conditions: max 10 µM
Procedure, shortened: as §1

[26] = compound: Cc1c2c(nn1C)CSCc1cc(n(C)n1)CSc1cc(c3ccccc3c1)OCCCc1c(C(=O)O)n(C)c3c-2c(Cl)ccc13 [AZD5991]; conditions: max 1 µM
Procedure, shortened: as §1

[27] = compound: Cn1cnc2c(F)c(Nc3ccc(Br)cc3Cl)c(C(=O)NOCCO)cc21 [Selumetinib]; conditions: max 10 µM
Procedure, shortened: as §1

Cell Line | IC50, cell viability 72 h [1] [µM] | IC50, cell viability 72 h [2] [µM] | IC50, cell viability 72 h [3] [µM] | IC50, cell viability 72 h [4] [µM] | IC50, cell viability 72 h ([5]; max 10 µM) [µM] | IC50, cell viability 72 h [6] [µM] | IC50, cell viability 72 h [7] [µM] | IC50, cell viability 72 h [8] [µM] | IC50, cell viability 72 h [9] [µM] | IC50, cell viability 72 h [10] [µM] | IC50, cell viability 72 h [11] [µM] | IC50, cell viability 72 h [12] [µM] | IC50, cell viability 72 h [13] [µM] | IC50, cell viability 72 h ([14]; max 10 µM) [µM] | IC50, cell viability 72 h [15] [µM] | IC50, cell viability 72 h [16] [µM] | IC50, cell viability 72 h [17] [µM] | IC50, cell viability 72 h [18] [µM] | IC50, cell viability 72 h [19] [µM] | IC50, cell viability 72 h [20] [µM] | IC50, cell viability 72 h [21] [µM] | IC50, cell viability 72 h [22] [µM] | IC50, cell viability 72 h [23] [µM] | IC50, cell viability 72 h [24] [µM] | IC50, cell viability 72 h [25] [µM] | IC50, cell viability 72 h [26] [µM] | IC50, cell viability 72 h [27] [µM] | IC50, cell viability 72 h ([5]; max 3 µM) [µM] | IC50, cell viability 72 h ([14]; max 3 µM) [µM]
ALL-PO (B-Lymphoblastic Leukemia) | > 1 | 0.166 | > 10 | > 3 | 7.82 | > 2 | 2.12 | > 0.001 | 0.0672 | > 0.3 | 0.00205 | 0.0177 | > 1 | 7.8 | 0.733 | 0.00676 | 4.65 | 5.29 | > 10 | 0.51 | 5.96 | 0.0559 | 0.0214 | > 3 | 1.81 | 0.0574 | > 10 |  | 
MHH-CALL-2 (B-Lymphoblastic Leukemia) | > 1 |  | > 10 | > 3 |  | > 2 | 3.26 |  | > 1 | > 0.3 | 0.00233 | 0.0934 | > 1 | > 10 | > 1 | > 1 | > 10 | 9.37 | > 10 | 1.07 | > 10 | 3.12 | > 1 | > 3 | 0.679 | 0.15 | > 10 | > 3 | 
NUGC-4 (Gastric Carcinoma) | > 1 | > 1 | > 10 | > 3 | > 10 | > 2 | > 10 | > 0.001 | 0.582 | > 0.3 | > 0.3 | 0.948 | > 1 | > 10 | > 1 | > 1 | > 10 | > 10 | > 10 | 2.53 | > 10 | > 10 | > 1 | > 3 | > 10 | > 1 | 5.68 |  | 
NCI-H209 (Small Cell Lung Carcinoma) | > 1 | 0.281 | > 10 | > 3 | 1.03 | > 2 | 2.11 | > 0.001 | > 1 | > 0.3 | 0.000637 | 0.0181 | > 1 | > 10 | 0.978 | 0.8 | > 10 | > 10 | > 10 | 0.373 | > 10 | 7.74 | 0.0184 | > 3 | > 10 | > 1 | > 10 |  | 
KMRC-20 (Kidney Carcinoma) | > 1 | > 1 | > 10 | > 3 | > 10 | 0.875 | > 10 | > 0.001 | > 1 | > 0.3 | 0.0328 | 0.0314 | > 1 | > 10 | > 1 | > 1 | > 10 | > 10 | > 10 | 1.29 | > 10 | 6.92 | > 1 | > 3 | > 10 | > 1 | > 10 |  | 
HuH-7 (Hepatocellular Carcinoma) | > 1 | > 1 | > 10 | > 3 | > 10 | > 2 | > 10 | > 0.001 | > 1 | > 0.3 | > 0.3 | > 1 | > 1 | > 10 | > 1 | > 1 | > 10 | > 10 | > 10 | > 3 | > 10 | > 10 | > 1 | > 3 | > 10 | > 1 | > 10 |  | 
NCI-H720 (Other Solid Carcinomas) |  | > 1 | > 10 |  | > 10 |  | 6.58 | > 0.001 |  |  | > 0.3 | 0.441 |  |  |  | 0.652 |  |  |  | 1.48 |  |  |  | > 3 |  |  |  |  | 0.812
SW1573 (Lung Adenocarcinoma) | > 1 | > 1 | > 10 | > 3 | > 10 | > 2 | > 10 | > 0.001 | > 1 | > 0.3 | 0.0522 | > 1 | > 1 | > 10 | > 1 | > 1 | > 10 | > 10 | > 10 | > 3 | > 10 | > 10 | > 1 | > 3 | > 10 | > 1 | > 10 |  | 

From the supplement of paper PMC11061612
